Reference: patent publication US20060174366A1, “Use of ahas mutant genes as selection marker in potato transformation” (priority 2002, published 2006)

Legend:
[1] = system: Potato leaf segments of varieties Prevalent, Producent, Karnico and Desiree; assay: Investigation of selection pressure: lethality of Imazamox concentrations on shoot regeneration from untransformed leaf segments; assay type: cell-based, Solanum tuberosum
Procedure: Potato leaf segments from in vitro propagated plants of four different potato varieties Prevalent, Producent, Karnico and Desiree were tested for natural tolerance on different concentrations of the imidazolinone herbicide Imazamox. It is important to choose a selection concentration at which the potato leaf tissue is viable long enough to regenerate shoots but have a high enough concentration to prevent the regeneration of untransformed shoots. Doses 0.1, 0.5, 1, 5, 10, 20, 30 and 50 μM Imazamox were tested.
Fully expended potato leaves are diagonally cut in 2 pieces and precultivated on MC-plates for 2 to 3 days at 23 to 24° C., see table 1.
The leaf tissues are transferred on MS300 medium for additional 2 days and cultivated under modest light at 23 to 24° C. simulating a co-cultivation step. Subsequently the leaf segments are moved to MS400 plates containing 400 mg/l Claforan. Claforan is added in order to suppress growth of Agrobacterium tumfaciens. Therefore the regeneration of shoots on different concentrations of Imazamox need to be monitored in presence of Claforan. Selection is taking place within 4 to 5 days when the explants are moved to MS400 medium supplemented with 400mg/l Claforan and Imazamox at above concentrations.
The explants are transferred to fresh selection medium every fortnight.
Leaf tissues were tested for the use of the AHAS resistance gene contained in SEQ ID No. 1 and for the selection of transgenic potato plant cells as described above. Four different potato cultivars Prevalent, Producent, Karnico and Desiree were cultivated on different concentrations of Imazamox, an imidazolinones type herbicides. It is essential to use the proper concentration for selection to yield an acceptable number of shoots per explant without high escape rate. The lethality of various Imazamox concentrations on regeneration was evaluated.
Lethal dose for regeneration was detected within 0.1 to 1 μM ranges of concentrations. Slight variation in lethality was detected between varieties. […]

[2] = system: in vitro potato leaf segments; assay: Effect of Imazamox on plant cell growth in tissue culture; assay type: cell-based, Solanum tuberosum
Description: Leaf segments are the explants of choice used in Agrobacterium mediated potato transformation. Transgenic plants are regenerated via direct or indirect organogenesis under selective conditions. Cytokinines as growth hormones are mainly involved in provoking cell division and adventitious bud formation in in vitro potato leaf segments. […] This phenomenon classifies Imazamox as a unique selection agent that is combining both lethality for non-transgenic cells and improved growth for transgenic cells.

`COCc1cnc(C2=NC(C)(C(C)C)C(=O)N2)c(C(=O)O)c1` (racemic) [Imazamox, (RS)-2-(4-isopropyl-4-methyl-5-oxo-2-imidazolin-2-yl)-5-methoxymethylnicotinic acid] was tested, and the lethality in regeneration ([1]; 0.3 μM Imazamox) was 80%, the lethality in regeneration ([1]; 0.5 μM Imazamox) was 100% and the Regeneration ([1]; 0.5 μM Imazamox included in the medium) was “No regeneration”. For the same compound, the “effect in tissue culture” value ([2]; applied in low concentrations) was “cytokinine-like effect” and the “effect in tissue culture” value ([2]; at higher concentrations) was “acting as an herbicide”.
